Experimental data from patent publication US20200315981A1, “COMPOSITIONS AND METHODS FOR NANOPARTICLE-BASED DRUG DELIVERY AND IMAGING” (Memorial Sloan Kettering Cancer Center, priority 2015, published 2020).
Like-named read-outs stand apart in the source and are kept apart here.

Test system: human prostatic adenocarcinoma cell line PC3
Test: Cell viability studies, PC3
Type: cell-based
Conditions: PC-3, PC3 cells
Excerpt: Subsequently, the dextran nanophores therapeutic potential in vitro and in vivo was investigated. […] This drug combination was selected, because it was previously reported that inhibition of the androgen receptor pathway leads to overactivation of the PI3K cascade, while suppression of PI3K upregulates androgen-receptor-mediated signaling. […] Doxorubicin and the MEK inhibitor AZD6244 (Selumetinib®) was co-loaded into dextran nanophores, since MEK is a downstream target of EGFR.

SMILES: COc1cccc2c1C(=O)c1c(O)c3c(c(O)c1C2=O)C[C@@](O)(C(=O)CO)C[C@@H]3O[C@H]1C[C@H](N)[C@H](O)[C@H](C)O1 [doxorubicin]
- IC50 (FIG. 6, read-out: IC50): 6.5 µM
- IC50 (FIG. 9D, read-out: doxorubicin concentration causing 50% reduction in the viability of PC3 cells): 8 µM
